In patent US8178658B2 (Dow AgroSciences, LLC, priority 2008, dated 2012):

Tests used:
[1] = system: beet armyworm (BAW; Spodoptera exigua: Lepidoptera); test: 128-well diet tray assay on beet armyworm (BAW 50); type: in vivo
Experimental: (§1) Bioassays on beet armyworm (BAW; Spodoptera exigua: Lepidoptera) were conducted using either a 96-well microtiter plate-based high throughput (HTS) bioassay or a 128-well diet tray assay. The HTS assay is a based on a modification of Lewer et al. J. Nat. Prod. 2006, 69, 1506. BAW eggs of were placed on top of artificial diet (100 μl) in each well of 96-well microtiter plate. The diet was pretreated with test compounds (12 μg dissolved in 30 μL of DMSO-acetone-water mixture) layered on top of the diet using a liquid handling system and then allowed to dry for several hours. Infested plates were then covered with a layer of sterile cotton batting and the plate lid, and then held in the dark at 29° C. Mortality was recoded at 6 d post-treatment. Each plate had six replicates. The percent mortality was calculated from the average of the six replicates. In the case of the 128-well diet assay, three to five second instar BAW larvae were placed in each well (3 mL) of the diet tray that had been previously filled with 1 mL of artificial diet to which 50 μg/cm^2 of the test compound (dissolved in 50 μL of 90:10 acetone-water mixture) had been applied (to each of eight wells) and then allowed to dry. Trays were covered with a clear self-adhesive cover, and held at 25° C., 14:10 light-dark for six days. Percent mortality was recorded for the larvae in each well; activity in the eight wells was then averaged. In Table 7, under the BAW HTS or BAW 50 heading, an “A” means that the compound was tested and at least 50 percent mortality was observed whereas, “B” means that either (1) the compound was tested and less than 50 percent mortality was observed or (2) the compound was not tested.

[2] = system: beet armyworm (BAW; Spodoptera exigua: Lepidoptera); test: 96-well microtiter plate-based high throughput (HTS) diet bioassay on beet armyworm (BAW HTS); type: in vivo; details: BAW eggs, 12 μg test compound per well, mortality at 6 d post-treatment, mortality class
Experimental: as §1

[3] = 128-well diet tray assay; 50 μg/cm^2 of test compound on diet; second instar BAW larvae; mortality class
[4] = 96-well microtiter plate HTS diet assay

Compound	BAW 50 ug/cm2 [1, 3]	BAW HTS ([2]; 96-well HTS diet bioassay)	BAW HTS [2, 4]	BAW HTS ([2]; 96-well HTS diet assay)	BAW 50 ug/cm2 ([1]; 128-well diet tray assay, second instar BAW larvae, 50 μg/cm^2 of test compound on diet; mortality class)
COC1C(C)OC(ON=Cc2ccc(-c3nn(-c4ccc(Cl)c(Cl)c4)c(=O)[nH]3)cc2)C(OC)C1OC (stereo not drawn) [Compound 98]	A (the compound was tested and at least 50 percent mortality was observed)	B (either (1) the compound was tested and less than 50 percent mortality was observed or (2) the compound was not tested)	B (either (1) the compound was tested and less than 50 percent mortality was observed or (2) the compound was not tested)	–	–
COC1C(C)OC(ON=Cc2ccc(-c3cn(-c4ccc(C(F)(F)F)cc4)cn3)cc2)C(OC)C1OC (stereo not drawn) [Compound 42]	A (the compound was tested and at least 50 percent mortality was observed)	B (either (1) the compound was tested and less than 50 percent mortality was observed or (2) the compound was not tested)	B (either (1) the compound was tested and less than 50 percent mortality was observed or (2) the compound was not tested)	–	–
COC1C(C)OC(ON=Cc2ccc(-c3ccn(-c4ccc(OC(F)(F)F)cc4)c3)cc2)C(OC)C1OC (stereo not drawn) [Compound 67]	A (the compound was tested and at least 50 percent mortality was observed)	B (either (1) the compound was tested and less than 50 percent mortality was observed or (2) the compound was not tested)	B (either (1) the compound was tested and less than 50 percent mortality was observed or (2) the compound was not tested)	–	–
CCO[C@@H]1[C@@H](OC)[C@H](C)O[C@@H](OC(=O)Nc2ccc(-c3ncn(-c4ccc(C(F)(F)F)cc4)n3)cc2)[C@@H]1OC [Compound 192]	A (the compound was tested and at least 50 percent mortality was observed)	–	A (the compound was tested and at least 50 percent mortality was observed)	A (the compound was tested and at least 50 percent mortality was observed)	–
CCC(O)c1ccc(-n2ccc(-c3ccc(C=NOC4OC(C)C(OC)C(OC)C4OC)cc3)n2)cc1 (mixture of isomers) [Compound 5]	A (the compound was tested and at least 50 percent mortality was observed)	B (either (1) the compound was tested and less than 50 percent mortality was observed or (2) the compound was not tested)	B (either (1) the compound was tested and less than 50 percent mortality was observed or (2) the compound was not tested)	–	–
COc1ccc(C=NOC2OC(C)C(OC)C(OC)C2OC)cc1-c1cn(-c2ccc(C(F)(F)F)cc2)cn1 (stereo not drawn) [Compound 40]	A (the compound was tested and at least 50 percent mortality was observed)	B (either (1) the compound was tested and less than 50 percent mortality was observed or (2) the compound was not tested)	B (either (1) the compound was tested and less than 50 percent mortality was observed or (2) the compound was not tested)	–	–
CCCCc1ccc(-n2cnc(-c3ccc(C=NOC4OC(C)C(OC)C(OC)C4OC)cc3)n2)cc1 (stereo not drawn) [Compound 81]	A (the compound was tested and at least 50 percent mortality was observed)	A (the compound was tested and at least 50 percent mortality was observed)	A (the compound was tested and at least 50 percent mortality was observed)	–	–
COC1C(C)OC(ON=Cc2ccc(-n3ccc(-c4ccc(Cl)cc4)n3)cc2)C(OC)C1OC (stereo not drawn) [Compound 2]	–	A (the compound was tested and at least 50 percent mortality was observed)	–	A (the compound was tested and at least 50 percent mortality was observed)	B (either (1) the compound was tested and less than 50 percent mortality was observed or (2) the compound was not tested)
CO[C@@H]1[C@@H](OC)[C@H](C)O[C@@H](OC(=O)Nc2ccc(-c3ncn(-c4ccc(Oc5ccc(Cl)cc5)cc4)n3)cc2)[C@@H]1OC [Compound 196]	A (the compound was tested and at least 50 percent mortality was observed)	–	A (the compound was tested and at least 50 percent mortality was observed)	A (the compound was tested and at least 50 percent mortality was observed)	–
COC1C(C)OC(ON=Cc2ccc(-c3nn(-c4c(F)c(F)c(C(F)(F)F)c(F)c4F)c(=O)[nH]3)cc2)C(OC)C1OC (stereo not drawn) [Compound 99]	A (the compound was tested and at least 50 percent mortality was observed)	B (either (1) the compound was tested and less than 50 percent mortality was observed or (2) the compound was not tested)	B (either (1) the compound was tested and less than 50 percent mortality was observed or (2) the compound was not tested)	–	–
CCO[C@@H]1[C@@H](OC)[C@H](C)O[C@@H](OC(=O)Nc2ccc(N3CC(=O)N(c4ccc(OC(F)(F)F)cc4)CC3=O)cc2)[C@@H]1OC [Compound 242]	A (the compound was tested and at least 50 percent mortality was observed)	–	B (either (1) the compound was tested and less than 50 percent mortality was observed or (2) the compound was not tested)	B (either (1) the compound was tested and less than 50 percent mortality was observed or (2) the compound was not tested)	–
CCO[C@@H]1[C@@H](OC)[C@H](C)O[C@@H](OC(=O)Nc2ccc(-c3nc(CCSC)n(-c4ccc(OC(F)(F)F)cc4)n3)cc2)[C@@H]1OC [Compound 221]	A (the compound was tested and at least 50 percent mortality was observed)	–	B (either (1) the compound was tested and less than 50 percent mortality was observed or (2) the compound was not tested)	B (either (1) the compound was tested and less than 50 percent mortality was observed or (2) the compound was not tested)	–
COc1ccc(C=NOC2OC(C)C(OC)C(OC)C2OC)cc1-c1cn(-c2ccc(OC(F)(F)F)cc2)cn1 (stereo not drawn) [Compound 35]	A (the compound was tested and at least 50 percent mortality was observed)	B (either (1) the compound was tested and less than 50 percent mortality was observed or (2) the compound was not tested)	B (either (1) the compound was tested and less than 50 percent mortality was observed or (2) the compound was not tested)	–	–
CCOC1C(OC)C(C)OC(ON=Cc2ccc(-c3ncn(-c4ccc(OC(F)(F)C(F)(F)Br)cc4)n3)cc2)C1OC (stereo not drawn) [Compound 124]	A (the compound was tested and at least 50 percent mortality was observed)	B (either (1) the compound was tested and less than 50 percent mortality was observed or (2) the compound was not tested)	B (either (1) the compound was tested and less than 50 percent mortality was observed or (2) the compound was not tested)	–	–
CCO[C@@H]1[C@@H](OC)[C@H](C)O[C@@H](OC(=O)Nc2ccc(C3=NCC(c4ccc(OC(F)(F)F)cc4)O3)cc2)[C@@H]1OC (stereo partly drawn) [Compound 185]	B (either (1) the compound was tested and less than 50 percent mortality was observed or (2) the compound was not tested)	–	B (either (1) the compound was tested and less than 50 percent mortality was observed or (2) the compound was not tested)	B (either (1) the compound was tested and less than 50 percent mortality was observed or (2) the compound was not tested)	–
COC1C(C)OC(ON=Cc2ccc(-c3ncn(-c4ccc(OC(F)(F)F)cc4)n3)cc2)C(OC)C1OC (stereo not drawn) [Compound 82]	A (the compound was tested and at least 50 percent mortality was observed)	B (either (1) the compound was tested and less than 50 percent mortality was observed or (2) the compound was not tested)	B (either (1) the compound was tested and less than 50 percent mortality was observed or (2) the compound was not tested)	–	–
